The record followed here is BindingDB's records for doi:10.1124/jpet.105.084830 (University of Tokyo, 2005).

Assay [1] deals with T1, Bile salt export pump (Rattus norvegicus, UniProt O70127).
T1 sequence (O70127 whole entry): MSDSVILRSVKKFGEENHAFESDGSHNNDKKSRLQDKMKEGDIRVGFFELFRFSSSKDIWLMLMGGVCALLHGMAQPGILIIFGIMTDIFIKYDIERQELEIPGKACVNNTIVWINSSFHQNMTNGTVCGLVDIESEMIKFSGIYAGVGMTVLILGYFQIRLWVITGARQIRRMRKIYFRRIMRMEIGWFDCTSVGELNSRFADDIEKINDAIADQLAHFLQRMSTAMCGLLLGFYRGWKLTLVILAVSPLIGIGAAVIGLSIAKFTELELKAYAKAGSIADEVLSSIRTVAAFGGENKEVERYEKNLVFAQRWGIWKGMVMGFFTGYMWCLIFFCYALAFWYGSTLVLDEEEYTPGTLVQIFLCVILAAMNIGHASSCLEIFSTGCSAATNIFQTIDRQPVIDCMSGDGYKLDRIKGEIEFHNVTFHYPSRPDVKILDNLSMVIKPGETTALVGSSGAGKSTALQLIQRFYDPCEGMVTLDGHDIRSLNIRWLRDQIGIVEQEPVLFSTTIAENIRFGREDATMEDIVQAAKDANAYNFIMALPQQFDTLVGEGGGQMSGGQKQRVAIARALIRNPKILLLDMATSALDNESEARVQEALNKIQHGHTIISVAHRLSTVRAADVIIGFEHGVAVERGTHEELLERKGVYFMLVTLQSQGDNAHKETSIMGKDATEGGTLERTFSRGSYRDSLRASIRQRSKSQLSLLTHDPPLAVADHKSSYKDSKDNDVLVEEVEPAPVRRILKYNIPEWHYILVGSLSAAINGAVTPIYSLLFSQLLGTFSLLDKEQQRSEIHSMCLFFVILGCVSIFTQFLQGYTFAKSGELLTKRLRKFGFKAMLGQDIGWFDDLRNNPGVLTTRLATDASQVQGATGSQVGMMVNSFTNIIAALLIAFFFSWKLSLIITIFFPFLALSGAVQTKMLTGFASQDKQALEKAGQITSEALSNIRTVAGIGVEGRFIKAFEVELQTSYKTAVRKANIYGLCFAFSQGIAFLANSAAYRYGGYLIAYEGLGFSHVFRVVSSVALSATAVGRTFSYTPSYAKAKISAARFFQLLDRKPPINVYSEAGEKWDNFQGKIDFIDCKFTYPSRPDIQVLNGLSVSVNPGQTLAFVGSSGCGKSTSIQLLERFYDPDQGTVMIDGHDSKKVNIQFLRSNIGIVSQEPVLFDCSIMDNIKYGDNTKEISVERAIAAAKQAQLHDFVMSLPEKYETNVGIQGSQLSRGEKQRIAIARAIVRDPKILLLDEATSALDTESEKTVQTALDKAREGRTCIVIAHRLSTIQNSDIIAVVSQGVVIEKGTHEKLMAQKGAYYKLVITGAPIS

Assay [2] deals with Bile salt export pump (Homo sapiens, UniProt O95342).
Chain of Bile salt export pump (Homo sapiens, UniProt O95342) (O95342 whole entry): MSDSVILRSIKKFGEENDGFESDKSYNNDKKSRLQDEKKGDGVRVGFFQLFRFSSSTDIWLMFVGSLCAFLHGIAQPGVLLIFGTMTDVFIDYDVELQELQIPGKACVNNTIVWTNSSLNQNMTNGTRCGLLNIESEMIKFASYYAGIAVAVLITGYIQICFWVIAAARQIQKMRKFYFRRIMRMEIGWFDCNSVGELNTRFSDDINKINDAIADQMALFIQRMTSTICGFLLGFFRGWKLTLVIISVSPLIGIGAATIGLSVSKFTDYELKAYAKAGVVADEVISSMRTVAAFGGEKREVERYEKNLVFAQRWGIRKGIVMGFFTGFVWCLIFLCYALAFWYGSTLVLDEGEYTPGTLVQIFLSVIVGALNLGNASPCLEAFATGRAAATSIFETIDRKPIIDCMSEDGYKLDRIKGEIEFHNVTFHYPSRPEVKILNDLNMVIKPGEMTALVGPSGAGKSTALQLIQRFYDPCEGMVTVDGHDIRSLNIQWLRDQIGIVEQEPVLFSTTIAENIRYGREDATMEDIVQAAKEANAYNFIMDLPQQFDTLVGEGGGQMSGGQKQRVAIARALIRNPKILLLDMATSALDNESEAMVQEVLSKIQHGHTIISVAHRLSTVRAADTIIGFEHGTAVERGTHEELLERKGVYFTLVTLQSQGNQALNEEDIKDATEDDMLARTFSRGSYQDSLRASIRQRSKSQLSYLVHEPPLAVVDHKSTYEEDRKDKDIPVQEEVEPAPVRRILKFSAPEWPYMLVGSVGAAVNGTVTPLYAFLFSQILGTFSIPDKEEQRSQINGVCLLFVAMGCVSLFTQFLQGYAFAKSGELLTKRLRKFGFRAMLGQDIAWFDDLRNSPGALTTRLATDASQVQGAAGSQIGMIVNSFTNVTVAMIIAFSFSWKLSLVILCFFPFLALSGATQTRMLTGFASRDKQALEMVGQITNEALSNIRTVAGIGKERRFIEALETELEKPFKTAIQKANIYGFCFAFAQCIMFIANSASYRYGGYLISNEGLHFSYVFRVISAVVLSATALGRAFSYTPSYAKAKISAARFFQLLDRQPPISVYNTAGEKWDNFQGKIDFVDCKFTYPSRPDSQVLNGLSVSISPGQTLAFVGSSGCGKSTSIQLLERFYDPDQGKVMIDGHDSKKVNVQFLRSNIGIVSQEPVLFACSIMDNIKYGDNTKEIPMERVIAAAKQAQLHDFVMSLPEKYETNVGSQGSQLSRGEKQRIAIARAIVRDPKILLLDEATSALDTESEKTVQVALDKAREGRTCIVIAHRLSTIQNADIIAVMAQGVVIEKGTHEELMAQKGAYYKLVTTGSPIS

One may read the Ki as a measure of affinity in units of concentration, obtained from inhibition or displacement. For the compound `CC(C)c1nc(N(C)S(C)(=O)=O)nc(-c2ccc(F)cc2)c1/C=C/[C@@H](O)C[C@@H](O)CC(=O)O`, the Ki at Bile salt export pump [1] and on Bile salt export pump [2] was greater than 10 µM each time.
Regarding `CC(C)c1c(C(=O)Nc2ccccc2)c(-c2ccccc2)c(-c2ccc(F)cc2)n1CC[C@@H]1C[C@@H](O)CC(=O)O1`, the Ki at Bile salt export pump [1] and at Bile salt export pump [2] was greater than 10 µM each time.
As for `CCC(C)(C)C(=O)O[C@H]1C[C@@H](C)C=C2C=C[C@H](C)[C@H](CC[C@@H]3C[C@@H](O)CC(=O)O3)[C@H]21` [2,2-dimethylbutyric acid, 8-ester with (4R,6R)-6-(2-((1S,2S,6R,8S,8aR)-1,2,6,7,8,8a-hexahydro-8-hydroxy-2,6-dimethyl-1-naphthyl)ethyl)tetrahydro-4-hydroxy-2H-pyran-2-one], the Ki at Bile salt export pump [1] is greater than 10 µM.
As to `CC[C@H](C)C(=O)O[C@H]1C[C@H](O)C=C2C=C[C@H](C)[C@H](CC[C@@H](O)C[C@@H](O)CC(=O)O)[C@H]21` [(3R,5R)-7-[(1S,2S,6S,8S,8aR)-6-hydroxy-2-methyl-8-{[(2S)-2-methylbutanoyl]oxy}-1,2,6,7,8,8a-hexahydronaphthalen-1-yl]-3,5-dihydroxyheptanoic acid], the Ki on Bile salt export pump [1] and at Bile salt export pump [2] was greater than 10 µM each time.
Consider `COCc1c(C(C)C)nc(C(C)C)c(/C=C/[C@@H](O)C[C@@H](O)CC(=O)O)c1-c1ccc(F)cc1` [(3R,5S,6E)-7-[4-(4-fluorophenyl)-5-(methoxymethyl)-2,6-bis(propan-2-yl)pyridin-3-yl]-3,5-dihydroxyhept-6-enoic acid], for which, at Bile salt export pump [1], the Ki is greater than 10 µM.
With `CC(C)n1c(/C=C/[C@@H](O)C[C@@H](O)CC(=O)O)c(-c2ccc(F)cc2)c2ccccc21` [CAS_93957-54-1], the Ki on Bile salt export pump [1] is greater than 10 µM.
As to `O=C(O)C[C@H](O)C[C@H](O)/C=C/c1c(C2CC2)nc2ccccc2c1-c1ccc(F)cc1` [CAS_147511-69-1], the Ki on Bile salt export pump [1] and at Bile salt export pump [2] was greater than 10 µM throughout.
For `CC(C)c1c(C(=O)Nc2ccccc2)c(-c2ccccc2)c(-c2ccc(F)cc2)n1CC[C@@H](O)C[C@@H](O)CC(=O)O` [CI 981], the Ki on Bile salt export pump [1] came out at 7.57 µM.
For `CCC(C)(C)C(=O)O[C@H]1C[C@@H](C)C=C2C=C[C@H](C)[C@H](CC[C@@H](O)C[C@@H](O)CC(=O)O)[C@H]21` [Simvastatin acid], the Ki on Bile salt export pump [1] and at Bile salt export pump [2] was greater than 10 µM each time.
